From publication PMC11513892, “Discovery of a Series of Macrocycles as Potent Inhibitors of Leishmania Infantum” (Journal of Medicinal Chemistry, 2024)
Where two headings read alike, the source gives them in different places.

What was measured:
[1] = Kinetic solubility in phosphate buffered saline at pH 7.4; assay type: physicochemical
Method: (§1) The kinetic solubility in phosphate buffered saline at pH 7.4, chromatographic Log D at pH 7.4, cell permeability across a MDCK-MDR1 cell monolayer at pH 7.4, and the clearance in mouse liver microsomes of 1–12 was determined at TCG Lifesciences.

MDR1 = test: in vitro; assay type: in vitro ADME, canine; details: dog; for Papp B→A: MDCK-MDR1, pH 7.4; for Papp A→B: MDCK-MDR1, pH 7.4, Papp AB
Method: (§2) The potency of macrocycles 1–12 to inhibit the growth of L. infantum was determined in a phenotypic assay in which the parasite was grown in primary peritoneal mouse macrophages (PMMs). To understand whether the SAR for inhibition of parasitic growth is impacted by low cell permeability, the permeability of compounds 1–12 was determined separately. Madin-Darby canine kidney (MDCK) cells transfected with the human MDR1 (multidrug resistance 1) gene (MDCK-MDR1 cells) were used to determine permeabilities in the apical to basolateral direction (Papp AB) as well as efflux ratios (ERs). […] Lipophilicity (Log D at pH 7.4), aqueous kinetic solubility and mouse liver microsomal metabolism were also determined for 1–12, and are discussed separately (cf. physiochemical properties and ADMET, below).
as §1

T. b. brucei = test: Growth of T. b. brucei trypomastigotes in axenic culture; assay type: cell-based; details: Trypanosoma brucei
Source text: (§3) We previously reported the synthesis of a series of macrocycles, including 1 (Figure 2A), designed to investigate how structural features influence molecular chameleonicity.[15],[21] Originating from the structural similarities between 1 and hymenocardine, we investigated 1 in screens for P. falciparum and four kinetoplastid parasites: T. b. brucei, T. b. rhodesiense, T. cruzi, and L. infantum. In the screens, we also included compounds 2 and 3 (Figure 2A), which were obtained from an intermediate late in the synthetic route to 1. Since very few validated protein targets relevant to clearance of parasites are known, phenotypic assays were used to investigate the antiparasitic activity for all five parasites. For malaria, the P. falciparum blood stage 3D7 strain was used to test the three compounds. For the two Trypanosoma brucei species, the reduction in trypomastigote growth in culture medium was determined after the addition of 1–3. For T. cruzi, the intracellular parasite growth in infected human fibroblasts (MRC-5 cell line) was assessed in the presence and absence of the three inhibitors. Similarly, the growth of L. infantum was assessed in infected primary mouse macrophages (PMMs) in the presence and absence of the inhibitors. […] The assays for T. cruzi and L. infantum are complex, i.e., they determine the degree of inhibition of parasitic replication in a mammalian cell line; this complexity may lead to a high variability for some compounds.
(§4) The growth of the P. falciparum blood stage 3D7 strain,[53] the two T. brucei species in axenic cultures,[54]T. cruzi in infected human fibroblasts (MRC-5 cell line),[55] and of L. infantum in infected primary mouse macrophages (PMMs)[56] was determined as previously reported in the presence and absence of inhibitors 1–12.

T. cruzi = test: Intracellular growth of T. cruzi in infected human fibroblasts (MRC-5 cell line); assay type: cell-based; details: Trypanosoma cruzi
Source text: as §3, §4

[2] = Clearance in mouse liver microsomes; assay type: in vitro ADME; details: for microsomal CLint: mouse, liver microsomes
Method: as §1

L. infantum = test: Growth of L. infantum in infected primary mouse macrophages (PMMs), phenotypic assay; assay type: cell-based, Leishmania infantum; details: Leishmania infantum, Macrophage
Source text: as §3, §2, §4

T. b. rhodesiense = test: Growth of T. b. rhodesiense trypomastigotes in axenic culture; assay type: cell-based, Trypanosoma brucei rhodesiense; details: Trypanosoma brucei, RHODESIENSE / STIB900; CSV supplement; decimal comma; read-out: EC50 T.b. rhodesiense STIB 900
Source text: as §3, §4

[3] = system: P. falciparum blood stage 3D7 strain; test: Growth of P. falciparum blood stage 3D7 strain (phenotypic); assay type: cell-based, Plasmodium falciparum; details: Figure 2A; for EC50: Plasmodium falciparum, 3D7, mean (SD) from 2 to 14 measurements
Source text: as §3, §4

[4] = Clearance in human microsomes; assay type: in vitro ADME; details: CSV supplement; for microsomal CLint: human, microsomes, read-out: CLint in vitro Human Microsomes
Source text: Supplement jm4c01370_si_002.csv, table | column: CLint in vitro Human Microsomes µL/min/mg; t(1/2) min

[5] = system: primary mouse macrophages (PMMs); test: Host cell cytotoxicity in primary mouse macrophages (PMM); assay type: cell-based; details: CSV supplement; decimal comma
[6] = Chromatographic Log D at pH 7.4; assay type: physicochemical; details: 1-octanol/PBS pH 7.4, determined by chromatography, mean of two measurements
Method: as §1

MRC-5 cells = test: Host cell cytotoxicity in MRC-5 cells; assay type: cell-based, human; details: CSV supplement; decimal comma
Leishmania donovani = test: Activity against Leishmania donovani; assay type: cell-based
[7] = Metabolite identification after incubation with rat liver microsomes; assay type: in vitro ADME; details: Figure S3: rat liver microsomes, samples at 5, 10, 20, 30 and 60 minutes
Method: page 4: Figure S2. Endo and exo conformations for compound 5, obtained using the Monte Carlo-QM protocol for conformational sampling. Minimum energy conformations (MECs) and all conformations within 5 kcal/mol of the MECs are shown. Figure S3. Metabolically labile sites (indicated by red circles) observed for compound 3 after incubation with rat liver microsomes. Samples were collected at 5, 10, 20, 30 and 60 minutes. […]

MDCK-MDR1 cells = test: in vitro; assay type: in vitro ADME, canine; details: dog, MDCK-MDR1, pH 7.4
Method: as §2, §1

[8] = phosphate buffered saline, pH 7.4, CSV supplement, read-out: Kinetic solubility
[9] = phosphate buffered saline, pH 7.4, phosphate buffered saline pH 7.4, assay range 2.5–200 μM, read-out: solubility (kinetic)
[10] = MDCK-MDR1, pH 7.4, ER, efflux ratio (BA/AB)
[11] = MDCK-MDR1, pH 7.4, MDCK MDR1 - pH 7.4 Efflux Ratio
[12] = CSV supplement, decimal comma, read-out: EC50 T.b. brucei Squib 427
[13] = MRC5, Figure 2A, mean (SD) from 2 to 14 measurements, read-out: EC50 T. cruzi
[14] = MRC5, Table S1, mean (SD), 2 to 14 measurements, unit not given in Table S1, read-out: In vitro potency, T. cruzi
[15] = TULAHUEN, MRC5, read-out: EC50 T. cruzi Tulahuen C4 (LacZ)
[16] = CSV supplement, read-out: CLint in vitro Mouse Microsomes
[17] = incubation with mouse liver microsomes, read-out: CLint
[18] = CSV supplement, decimal comma, read-out: EC50 L. infantum MHOM/MA(BE)/67
[19] = Table 1, mean (standard deviation, number of measurements), read-out: EC50 (μM), inhibition of the growth of L. infantum
[20] = Table S1, mean (SD), 2 to 14 measurements, unit not given in Table S1, read-out: In vitro potency, T. b. brucei

Compound	solubility kinetic [1, 8] [µg/mL]	solubility kinetic [1, 9] [µM]	Papp B→A (MDR1) [×10⁻⁶ cm/s]	efflux ratio (MDR1; [10])	efflux ratio (MDR1; [11])	Papp A→B (MDR1) [×10⁻⁶ cm/s]	EC50 (T. b. brucei; [12]) [µM]	EC50 (T. cruzi; [15]) [µM]	t(1/2), Mouse Microsomes ([2]; CSV supplement)	microsomal CLint [2, 16] [µL/min/mg]	microsomal CLint [2, 17] [µL/min/mg]	EC50 (L. infantum; [19]) [µM]	EC50 (T. b. rhodesiense) [µM]	potency as inhibitor of P. falciparum (in words) [3]	EC50 [3] [µM]	t(1/2), Human Microsomes [4]	microsomal CLint [4] [µL/min/mg]	PMM Primary Mouse Macrophages (inf-LMPH) (cytotoxicity) [5]	chromatographic logD [6]	MRC-5 cells Human Lung Fibroblast Cells (cytotoxicity) (MRC-5 cells)	other results
CC(C)(C)OC(=O)N[C@H]1Cc2ccc(cc2)Oc2ccc(cc2)C(=O)CNC(=O)[C@H](Cc2ccccc2)NC1=O [Compound 1]	24	44	21.4	4.3	4.3	5	6.1	14.6	<3 min	> 578	> 580	33	6	low or no potency	21	3,5 min	497	48,0 µM	4	>64 µM	EC50 (T. cruzi; [13]): 10 to 30 µM; EC50 (T. cruzi; [14]): 15 µM; EC50 (L. infantum; [18]): 32.8 µM
CC(=O)Nc1cc2ccc1Oc1ccc(cc1)C[C@H](NC(=O)OC(C)(C)C)C(=O)N[C@@H](Cc1ccccc1)C(=O)NCC2=O [Compound 2]	101	> 100	13.3	19	19.3	0.7	37	41	6,0 min	257	260	31	29	low or no potency	> 25	6,1 min	285	>64 µM	3.2	50,5 µM	solubility kinetic ([1]; phosphate buffered saline pH 7.4, assay range 2.5–200 μM, read-out: solubility (kinetic)): 169 µM
CC(C)(C)OC(=O)N[C@H]1Cc2ccc(cc2)Oc2ccc(cc2NC(=O)c2ccccn2)C(=O)CNC(=O)[C@H](Cc2ccccc2)NC1=O [Compound 3, tert-Butyl ((8S,11S)-8-Benzyl-4,7,10-trioxo-3^2-(picolinamido)-2-oxa-6,9-diaza-1,3(1,4)-dibenzenacyclododecaphane-11-yl)carbamate]	1	< 2.5	22.2	6.4	6.4	3.5	15.1	20	<3 min	> 578	> 580	1.8	9.1	moderately potent	3	<3 min	> 578	>64 µM	4.9	57,6 µM	EC50 (T. b. brucei; [20]): 15 µM; EC50 (T. cruzi; [13]): 10 to 30 µM; EC50 (L. infantum; Figure 2, mean (SD), miltefosine from 19 measurements, read-out: EC50 L. infantum): < 2 µM; EC50 (Leishmania donovani): 1.04 ± 0.25 µM; metabolite identification, sites of metabolism [7]: oxidative metabolism occurring at the P2 and P3 positions, and at the α-carbon atom of the tyrosine moiety in the macrocyclic ring
CC(C)(C)OC(=O)N[C@H]1Cc2ccc(cc2)Oc2ccc(cc2NC(=O)c2ccccn2)CCNC(=O)[C@H](Cc2ccccc2)NC1=O [Compound 6, tert-Butyl ((8S,11S)-8-Benzyl-7,10-dioxo-3^2-(picolinamido)-2-oxa-6,9-diaza-1,3(1,4)-dibenzenacyclododecaphane-11-yl)carbamate]	3.8	5.9	79.9	8.4	8.4	> 5	11.8	18.8	<3 min	> 578	> 580	12	6.3	–	–	–	–	16,0 µM	5.1	45,8 µM	Papp AB (MDCK-MDR1 cells): 9.5 ×10^–6 cm/s; EC50 (T. b. brucei; [20]): 12 µM; EC50 (T. cruzi; [14]): 19 µM; EC50 (L. infantum; [18]): 12.3 µM
